Experimental findings from patent publication US20250326777A1, “COMPOUNDS, COMPOSITIONS AND METHODS THEREOF” (HEPAITECH (BEIJING) BIOPHARMA TECHNOLOGY CO., LTD., priority 2022, published 2025) are described below.

T1 sequence (Q96LA9 whole entry): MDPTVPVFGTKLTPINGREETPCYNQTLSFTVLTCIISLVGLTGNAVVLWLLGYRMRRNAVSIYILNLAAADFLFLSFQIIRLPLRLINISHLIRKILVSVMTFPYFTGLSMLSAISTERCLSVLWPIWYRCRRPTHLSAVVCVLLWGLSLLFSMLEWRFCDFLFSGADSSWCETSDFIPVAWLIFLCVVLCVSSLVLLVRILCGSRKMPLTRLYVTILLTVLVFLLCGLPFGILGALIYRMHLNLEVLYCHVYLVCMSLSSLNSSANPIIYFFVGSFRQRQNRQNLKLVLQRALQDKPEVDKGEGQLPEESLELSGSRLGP

The first test has as its target T1, human MRGPRX4 (Homo sapiens, UniProt Q96LA9).
T1 construct: expressed in transfected cells
In words: MRGPRX4 antagonist calcium (FLIPR, Fluo-8) assay in HEK293T cells stably expressing human MRGPRX4, agonist 0.2 μM deoxycholic acid-3-phosphoric acid. The settings on record: HEK293T cells stably expressing human MRGPRX4; antagonist mode; top conc. 30 μM, ten 3-fold serial dilutions; C may also mean <40% inhibition at 2 μM; read-out: Antagonist activity (IC50 class). The format is cell-based. How it is done: HEK293T cells stably expressing human MRGPRX4 were cultured in DMEM medium supplements with 10% FBS, 100 U/mL penicillin-streptomycin, 20 mM HEPES and 1 μg/mL puromycin at 37° C. with 5% (v/v) CO2. One day before test, the cells were detached using TrypLE™ Express and counted using cell counter. In a 384-well plate cells were seeded at a density of 20,000 cells/well in 20 uL/well planting medium (DMEM medium supplements with 5% FBS, 100 U/mL penicillin-streptomycin and 20 mM HEPES), and incubated overnight at 37° C. with 5% (v/v) CO2. On the day of experiments, the dye solution, prepared following the manufacture's instruction of the Screen Quest™ Fluo-8 No Wash Calcium Assay Kit, was added to each well (20 μL/well) of the cell plate. The cell plate was incubated at 25° C. for 1 hour. Test compounds in different doses were transferred to the cell plate by FLIPR and the plate was kept in the dark at 25° C. for 30 minutes. The agonist solution, 0.2 μM of deoxycholic acid-3-phosphoric acid in assay buffer, was added to each well of the plate. The plate was read for 160 sec with 1 sec interval to obtain data of antagonist mode in FLIPR. For various compounds, IC50 values were calculated by fitting % inhibition against log of compound concentrations (top conc. 30 μM, ten 3-fold serial dilutions) with Hill equation using XLfit. […] Those skilled in the art appreciate that IC50 of various compounds can be assessed in accordance with the present disclosure.
What is called IC50 is the concentration needed to halve the response being measured. Regarding `O=C(O)c1cccc([C@@H]2Cc3cc(C(F)(F)F)ccc3O2)c1F` [Compound 52A], the IC50 was < 1 µM.

In the case of `O=C(O)c1cccc([C@H]2Cc3cc(C(F)(F)F)ccc3O2)c1F` [Compound 52B], the IC50 is > 10 µM.

Consider `Fc1c(-c2nnn[nH]2)cccc1[C@@H]1Cc2cc(C(F)(F)F)ccc2O1` [Compound 88], for which the half-inhibitory concentration (IC50) is < 1 µM.

`Fc1cc(-c2nnn[nH]2)cc(C2Cc3cc(C(F)(F)F)ccc3O2)c1` (centres unmarked) [Compound 91]: the IC50 was < 1 µM.

Turning to `Fc1c(-c2nnn[nH]2)cccc1C1Cc2c(ccc3ccccc23)O1` (centres unmarked) [Compound 92], the IC50 is < 1 µM.

Consider `Cc1cc(-c2nnn[nH]2)cc(C2Cc3cc(C(F)(F)F)ccc3O2)c1` (centres unmarked) [Compound 94], for which the IC50 is < 1 µM.

As to `Fc1ccc(C2Cc3c(ccc4ccccc34)O2)cc1-c1nnn[nH]1` (centres unmarked) [Compound 97], the IC50 was < 1 µM.

On to `Fc1ccc(C2Cc3cc(C(F)(F)F)ccc3O2)cc1-c1nnn[nH]1` (centres unmarked) [Compound 98], for which the IC50 was < 1 µM.

For the compound `Cc1cc(-c2nnn[nH]2)c(F)c(C2Cc3cc(C(F)(F)F)ccc3O2)c1` (centres unmarked) [Compound 99], the IC50 is < 1 µM.

Take `N#Cc1cc(-c2nnn[nH]2)cc(C2Cc3cc(C(F)(F)F)ccc3O2)c1` (centres unmarked) [Compound 101]: the IC50 was < 1 µM.

Turning to `Fc1c(-c2nnn[nH]2)cccc1[C@@H]1Cc2c(ccc3ccccc23)O1` [Compound 102], the IC50 was < 1 µM.

In the case of `Fc1ccc([C@@H]2Cc3c(ccc4ccccc34)O2)cc1-c1nnn[nH]1` [Compound 103], the IC50 was < 1 µM.

As to `Fc1ccc([C@@H]2Cc3cc(C(F)(F)F)ccc3O2)cc1-c1nnn[nH]1` [Compound 104], the IC50 was < 1 µM.

On to `O=c1[nH]c(-c2cccc([C@@H]3Cc4cc(C(F)(F)F)ccc4O3)c2F)no1` [Compound 105], for which the IC50 is < 1 µM.

Turning to `Cn1c(-c2ccc(C(=O)O)cc2)cc2ccc(C(F)(F)F)cc21` [Example 1], the IC50 was 1 to 10 µM.

`Cn1c(-c2ccc(F)c(C(=O)O)c2)cc2ccc(C(F)(F)F)cc21` [Example 2]: the IC50 was > 10 µM.

As to `O=C(O)c1ccc(-c2cc3ccc(C(F)(F)F)cc3[nH]2)cc1` [Example 3], the IC50 is > 10 µM.

Consider `Cn1c(-c2cccc(C(=O)O)c2)cc2ccc(C(F)(F)F)cc21` [Example 4], for which the IC50 is > 10 µM.

As to `CC(C)n1c(-c2ccc(C(=O)O)cc2)cc2ccc(C(F)(F)F)cc21` [Example 5], the IC50 was in the range of 1 to 10 µM.

For the compound `Cn1c(-c2ccc(C(=O)O)cc2)cc2ccc(C#N)cc21` [Example 6], the IC50 was > 10 µM.

For `Cn1c(-c2cccc(C(=O)O)c2)cc2ccc(C#N)cc21` [Example 7], the IC50 was > 10 µM.

With `Cn1c(-c2ccc(C(=O)O)cc2)cc2ccc(C(=O)O)cc21` [Example 9], the IC50 is > 10 µM.

In the case of `COc1ccc2cc(-c3ccc(C(=O)O)cc3)n(C)c2c1` [Example 10], the IC50 was > 10 µM.

Regarding `CC(C)n1c(-c2ccc(C(=O)O)cc2)cc2cc(Cl)c(Cl)cc21` [Example 11], the IC50 is > 10 µM.

As for `Cn1c(-c2ccc(C(=O)O)cc2)cc2cc(Cl)c(Cl)cc21` [Example 12], the IC50 was > 10 µM.

Regarding `Cn1c(-c2ccc(C(=O)O)cc2)cc2c(Cl)cc(C(F)(F)F)cc21` [Example 13], the half-inhibitory concentration (IC50) lay in the range of 1 to 10 µM.

As for `Cn1c(-c2ccc(C(=O)O)cc2F)cc2ccc(C(F)(F)F)cc21` [Example 14], the IC50 was in the range of 1 to 10 µM.

Turning to `Cn1c(-c2ccc(C(=O)O)cc2)cc2cc(C(F)(F)F)ccc21` [Example 15], the IC50 lay within 1 to 10 µM.

Consider `CCCn1c(-c2ccc(C(=O)O)cc2)cc2ccc(C(F)(F)F)cc21` [Example 16], for which the IC50 lay within 1 to 10 µM.

In the case of `CC(C)Cn1c(-c2ccc(C(=O)O)cc2)cc2ccc(C(F)(F)F)cc21` [Example 17], the IC50 fell in the range of 1 to 10 µM.

Take `CCCn1c(-c2ccc(C(=O)O)cc2F)cc2ccc(C(F)(F)F)cc21` [Example 18]: the IC50 is < 1 µM.

`CCCn1c(-c2ccc(C(=O)O)c(F)c2)cc2ccc(C(F)(F)F)cc21` [Example 19]: the IC50 fell in the range of 1 to 10 µM.

On to `CCCn1c(-c2ccc(C(=O)O)cc2)cc2ccc(F)cc21` [Example 20], for which the IC50 is > 10 µM.

In the case of `CCCn1c(-c2ccc(C(=O)O)cc2)cc2ccc(OC(F)(F)F)cc21` [Example 21], the IC50 is > 10 µM.

As for `Cn1c(-c2ccc(C(=O)O)cc2)cc2c(-c3ccccc3)cccc21` [Example 22], the IC50 was > 10 µM.

On to `CCCn1c(-c2ccc(C(=O)O)cc2)cc2ccc(-c3ccccc3)cc21` [Example 23], for which the IC50 is > 10 µM.

For `CCCn1c(-c2ccc(C(=O)O)cc2)cc2ccc(S(C)(=O)=O)cc21` [Example 24], the IC50 was > 10 µM.

As for `Cn1c(-c2ccc(C(=O)O)cc2)cc2cccc(-c3ccccc3)c21` [Example 25], the IC50 was > 10 µM.

Regarding `O=C(O)c1ccc(-c2cc3ccc(C(F)(F)F)cc3n2Cc2ccccc2)cc1` [Example 26], the half-maximal inhibitory concentration (IC50) was > 10 µM.

On to `O=C(O)c1ccc(-c2cc3ccc(C(F)(F)F)cc3n2C2CCCC2)cc1` [Example 27], for which the IC50 is 1 to 10 µM.

As for `O=C(O)c1ccc(-c2cc3ccc(C(F)(F)F)cc3n2C2CCC2)cc1` [Example 28], the IC50 is 1 to 10 µM.

Regarding `O=C(O)c1ccc(-c2cc3ccc(C(F)(F)F)cc3n2C2CCCCC2)cc1` [Example 29], the concentration for half-maximal inhibition (IC50) lay in the range of 1 to 10 µM.

Turning to `O=C(O)c1ccc(-c2cc3ccc(C(F)(F)F)cc3n2C2CCCC2)c(F)c1` [Example 30], the IC50 is < 1 µM.

In the case of `O=C(O)c1ccc(-c2cc3ccc(C(F)(F)F)cc3n2C2CCCC2)cc1F` [Example 31], the IC50 lay within 1 to 10 µM.

In the case of `O=C(O)c1cccc(-c2cc3ccc(C(F)(F)F)cc3n2C2CCCC2)c1F` [Example 32], the 50% inhibitory concentration (IC50) was > 10 µM.

With `CC(C)n1c(-c2ccc(C(=O)O)cc2)cc2c(Cl)cc(C(F)(F)F)cc21` [Example 33], the IC50 was > 10 µM.

Turning to `O=C(O)c1ccc(-c2cc3ccc(C(F)(F)F)cc3n2-c2ccccc2)cc1` [Example 34], the IC50 lay in the range of 1 to 10 µM.

Regarding `O=C(O)c1ccc(-c2cc3ccc(C(F)(F)F)cc3n2-c2ccccc2)cc1F` [Example 35], the IC50 is > 10 µM.

On to `O=C(O)c1ccc(-c2cc3ccc(C(F)(F)F)cc3n2-c2ccccc2)c(F)c1` [Example 36], for which the IC50 was > 10 µM.

As for `Cn1c(-c2ccc(C(=O)O)cc2)c(F)c2ccc(C(F)(F)F)cc21` [Example 37], the IC50 was > 10 µM.

Consider `O=C(O)c1ccc(-c2[nH]c3cc(C(F)(F)F)ccc3c2F)cc1` [Example 38], for which the half-maximal inhibitory concentration (IC50) is > 10 µM.

In the case of `Cc1c(-c2ccc(C(=O)O)cc2)n(C)c2cc(C(F)(F)F)ccc12` [Example 39], the IC50 is > 10 µM.

In the case of `CN1c2cc(C(F)(F)F)ccc2CC1c1ccc(C(=O)O)cc1` (centres unmarked) [Example 40], the IC50 is > 10 µM.

Take `O=C(O)c1ccc(C2Cc3ccc(C(F)(F)F)cc3N2)cc1` (centres unmarked) [Example 41]: the IC50 is > 10 µM.

In the case of `O=C(O)c1cc(-c2nc3cc(C(F)(F)F)c(Cl)cc3o2)ccc1F` [Example 42], the half-inhibitory concentration (IC50) was > 10 µM.

For the compound `O=C(O)c1cccc(-c2nc3cc(C(F)(F)F)cc(Cl)c3o2)c1` [Example 43], the IC50 is > 10 µM.

Turning to `O=C(O)c1ccc(-c2nc3c(C(F)(F)F)c(F)ccc3o2)cc1F` [Example 44], the IC50 is > 10 µM.

In the case of `O=C(O)c1cc(-c2nc3c(C(F)(F)F)c(Cl)ccc3o2)ccc1F` [Example 45], the half-maximal inhibitory concentration (IC50) was > 10 µM.

With `O=C(O)c1cc(F)cc(-c2nc3cc(C(F)(F)F)c(Cl)cc3o2)c1` [Example 46], the IC50 is > 10 µM.

`O=C(O)c1ccc(-c2nc3cc(C(F)(F)F)cc(Cl)c3o2)cc1` [Example 47]: the IC50 is > 10 µM.

For the compound `O=C(O)c1cc(Br)cc(-c2nc3cc(C(F)(F)F)c(Cl)cc3s2)c1` [Example 48], the IC50 is > 10 µM.

As for `O=C(O)c1cccc(-c2cc3cc(C(F)(F)F)ccc3o2)c1` [Example 50], the IC50 is > 10 µM.

As to `O=C(O)c1cccc(-c2cc3ccc(C(F)(F)F)cc3o2)c1` [Example 51], the IC50 was > 10 µM.

In the case of `O=C(O)c1cccc(C2Cc3cc(C(F)(F)F)ccc3O2)c1F` (centres unmarked) [Example 52], the IC50 was < 1 µM.

In the case of `O=C(O)c1cc(C2Cc3cc(C(F)(F)F)ccc3O2)ccc1F` (centres unmarked) [Example 53], the IC50 was in the range of 1 to 10 µM.

The same test, now with this note: HEK-293T; single concentration 0.5 μM; HEK293T cells stably expressing human MRGPRX4.
Broadly, the inhibition is the percentage by which the read-out fell short of the control. As for `FC(F)(F)c1ccc2c(c1)CC(c1cc(-c3nnn[nH]3)cc(C3CC3)c1)O2` (centres unmarked) [Compound 90], the inhibition at 0.5 µM stood at 27%.

As to `FC(F)(F)c1ccc2c(c1)CC(c1cccc(-c3nnn[nH]3)c1)O2` (centres unmarked) [Compound 93], the inhibition at 0.5 µM is 24%.

Regarding `Cc1ccc2c(c1)CC(c1cccc(-c3nnn[nH]3)c1F)O2` (centres unmarked) [Compound 95], the inhibition at 0.5 µM was determined as 8.6%.

Regarding `Fc1c(-c2nnn[nH]2)cccc1C1Cc2cc(OC(F)(F)F)ccc2O1` (centres unmarked) [Compound 96], the inhibition at 0.5 µM was 3.7%.

Staying with this test, now noted: HEK-293T; single concentration 2 μM; HEK293T cells stably expressing human MRGPRX4.
As to `Fc1c(-c2nnn[nH]2)cccc1[C@H]1Cc2cc(C(F)(F)F)ccc2O1` [Compound 89], the inhibition at 2 µM is 61%.

Still in this test, the particulars now being: S enantiomer 52A versus 52B; see Table 1.
On to `O=C(O)c1cccc([C@@H]2Cc3cc(C(F)(F)F)ccc3O2)c1F` [Compound 52A], for which the “MRGPRX4 inhibition activity, comparison of enantiomers” value was “much higher MRGPRX4 inhibition activity than 52B”.
